Structures can show the parent of a compound that is named as a salt.

The target of one experiment is T1, Abl (T315I) (Homo sapiens, UniProt P00519, T315I).
T1 construct: purchased Upstate
Kind of experiment: Abl (T315I) Kinase Assay (KinaseGlo luminescent detection of residual ATP). The format is biochemical. The settings on record: Abl (T315I) IC50 (nM), Abl (T315I) (Upstate, 17 ng/well), Abltide 100 uM, ATP 500 nM, 60 minutes at 37° C. The protocol: The assay was performed similarly to the Abl kinase assay. Abl (T315I) (Upstate, 17 ng/well); Abltide substrate (100 uM) and ATP (500 nM) comprised the reaction mixture. Compound was similarly diluted, and the reaction plate was incubated for 60 minutes at 37° C.
(In general: Kinase-Glo measures the ATP left after a reaction by luminescence.)

The next experiment concerns the target Abl kinase (Homo sapiens, UniProt P00519). The experiment can be described thus: biochemical. As to conditions: Abl IC50 (nM), Abl kinase (Invitrogen, 20 ng/well), Abltide 100 μM, ATP 500 nM, 37° C. for 60 minutes, top concentration 10 uM.

Procedure for Abl kinase: Kinase activity was assessed using luminescent detection (KinaseGlo, Promega) of residual ATP concentration in reaction mixtures containing optimized levels of kinase, substrate, ATP, compound and appropriate buffers. Kinase, substrate and ATP concentrations were determined per the supplier's recommendations. Briefly, this involved running concentration curves to select for optimal signal.
The reaction mixture (50 ul/well) consisted of Abl kinase (Invitrogen, 20 ng/well); Abltide peptide substrate (Upstate, 100 μM) and ATP (500 nM). Each compound was evaluated at a top concentration of 10 uM with 1:3 dilution steps, 10 dilution steps total. Compound was diluted into DMSO and transferred to the reaction plate, resulting in a final DMSO concentration of 2%. This amount of DMSO was determined not to interfere with the enzyme. The reaction was conducted at 37° C. for 60 minutes. The degree of inhibition was assessed using IC50 determinations, which were obtained using GraphPad Prism4.

For `O=S(=O)(c1ccc(Nc2ncc(/C=C/c3ccc(F)c(O)c3)cn2)cc1)C1CCNCC1` [2-Fluoro-5-(2-{2-[4-(piperidine-4-sulfonyl)-phenylamino]-pyrimidin-5-yl}-vinyl)-phenol], the IC50 (in general, the concentration at which inhibition is half-maximal) is 213 nM against Abl (T315I) and 12 nM against Abl kinase.
As for `C(=C\c1cccc2[nH]ccc12)/c1cnc(Nc2ccc(OC3CCNCC3)cc2)nc1` [5-[(E)-2-(1H-indol-4-yl)vinyl]-N-[4-(piperidin-4-yloxy)phenyl]pyrimidin-2-amine trifluoroacetic acid salt], the IC50 on Abl (T315I) came out at 820 nM; on Abl kinase it was 21 nM.
With `Nc1nc2ccc(/C=C/c3cnc(Nc4ccc(S(=O)(=O)N(CCO)C5CCNCC5)cc4)nc3)cc2s1` [4-({5-[(E)-2-(2-amino-1,3-benzothiazol-6-vinyl]pyrimidin-2-yl}amino)-N-(2-hydroxyethyl)-N-piperidin-4-ylbenzenesulfonamide], the figures for the IC50 against Abl (T315I) and against Abl kinase were 33 nM and 84 nM, respectively.
Regarding `O=S(=O)(c1ccc(Nc2ncc(/C=C/c3cc(F)cc4[nH]nnc34)cn2)cc1)C1CCNCC1` [5-((E)-2-(6-fluoro-1H-benzo[d][1,2,3]triazol-4-yl)vinyl)-N-(4-(piperidin-4-ylsulfonyl)phenyl)pyrimidin-2-amine trifluoroacetate], the IC50 against Abl (T315I) stood at 12 nM; on Abl kinase, 7.2 nM.
Turning to `N#Cc1ccc(Nc2ncc(/C=C/c3cccc4[nH]ccc34)cn2)cc1` [4-(5-((E)-2-(1H-indol-4-yl)vinyl)pyrimidin-2-ylamino)benzonitrile], the results for the IC50 at Abl (T315I) and on Abl kinase were above 10000 nM and 174 nM, respectively.
The corresponding values for `CN(C)CCN(C1CCNCC1)S(=O)(=O)c1ccc(Nc2ncc(/C=C/c3cccc4[nH]ncc34)cn2)cc1` [N-[2-(dimethylamino)ethyl]-4-({5-[(E)-2-(1H-indazol-4-yl)vinyl]pyrimidin-2-yl}amino)-N-piperidin-4-ylbenzenesulfonamide] are 113 nM and 10 nM.
In the same order, the values of `O=C(Nc1cccc(/C=C/c2cnc(Nc3cccnc3)nc2)c1)c1cccc(C(F)(F)F)c1` [N-(3-{2-[2-(Pyridin-3-ylamino)-pyrimidin-5-yl]-vinyl}-phenyl)-3-trifluoromethyl-benzamide] are above 10000 nM and 148 nM.
In the same order, the values of `O=S(=O)(c1ccc(Nc2ncc(/C=C/c3ccc4c(c3)CC/C4=N/O)cn2)cc1)C1CCNCC1` [5-(2-{2-[4-(Piperidine-4-sulfonyl)-phenylamino]-pyrimidin-5-yl}-vinyl)-indan-1-one oxime] are 3650 nM and 593 nM.
Consider `O=S(=O)(c1ccc(Nc2ncc(/C=C/c3cccc(O)c3)cn2)cc1OC(F)(F)F)N1CCNCC1` [3-(2-{2-[4-(Piperazine-1-sulfonyl)-3-trifluoromethoxy-phenylamino]-pyrimidin-5-yl}-vinyl)-phenol], for which the concentration for half-maximal inhibition (IC50) against Abl (T315I) stood at 752 nM; against Abl kinase, 97 nM.
In the same order, the values of `C[C@H](N)C(=O)N1CCC(S(=O)(=O)c2ccc(Nc3ncc(/C=C/c4cccc5[nH]ccc45)cn3)cc2)CC1` [(S)-1-(4-(4-(5-((E)-2-(1H-indol-4-yl)vinyl)pyrimidin-2-ylamino)phenylsulfonyl)piperidin-1-yl)-2-aminopropan-1-one hydrochloride] are 464 nM and 43 nM.
The corresponding values for `O=S(=O)(c1ccc(Nc2ncc(/C=C/c3ccc4[nH]ncc4c3)cn2)cc1)C1CCNCC1` [{5-[2-(1H-Indazol-5-yl)-vinyl]-pyrimidin-2-yl}-[4-(piperidine-4-sulfonyl)-phenyl]-amine] are 262 nM and 163 nM.
As to `O=S(=O)(NCCO)c1ccc(Nc2ncc(/C=C/c3cccc(O)c3)cn2)cc1N1CCNCC1` [N-(2-hydroxyethyl)-4-({5-[(E)-2-(3-hydroxyphenyl)vinyl]pyrimidin-2-yl}amino)-2-piperazin-1-ylbenzenesulfonamide trifluoroacetic acid salt], the IC50 against Abl (T315I) is 514 nM; against Abl kinase, 66 nM.
The corresponding values for `O=S(=O)(c1ccc(Nc2ncc(/C=C/c3ccc(C(F)F)cc3)cn2)cc1)C1CCNCC1` [5-(4-(difluoromethyl)styryl)-N-(4-(piperidin-4-ylsulfonyl)phenyl)pyrimidin-2-amine. Triflate] are 1330 nM and 429 nM.
The corresponding values for `Nc1nc2ccc(/C=C/c3cnc(Nc4ccc(S(=O)(=O)CCCN5CCCC5)cc4)nc3)cc2s1` [6-{(E)-2-[2-({4-[(3-pyrrolidin-1-ylpropyl)sulfonyl]phenyl}amino)pyrimidin-5-yl]vinyl}-1,3-benzothiazol-2-amine trifluoroacetic acid salt] are 173 nM and 81 nM.
The corresponding values for `Nc1nc2ccc(/C=C/c3cnc(Nc4ccc(S(=O)(=O)N5CCNCC5)c(C(F)(F)F)c4)nc3)cc2s1` [6-[(E)-2-(2-{[4-(piperazin-1-ylsulfonyl)-3-(trifluoromethyl)phenyl]amino)pyrimidin-5-yl)vinyl]-1,3-benzothiazol-2-amine] are 2100 nM and 1020 nM.
Regarding `O=S(=O)(NCCN1CCCC1)c1ccc(Nc2ncc(CCc3cc(O)ccc3Cl)cn2)cc1` [4-{5-[2-(2-Chloro-5-hydroxy-phenyl)-ethyl]-pyrimidin-2-ylamino}-N-(2-benzenesulfonamide hydrochloride], the figures for the IC50 on Abl (T315I) and on Abl kinase were 805 nM and 5 nM, respectively.
Turning to `O=S(=O)(NCCO)c1ccc(Nc2ncc(/C=C/c3cccc4[nH]ncc34)cn2)cc1N1CCNCC1` [N-(2-hydroxyethyl)-4-({5-[(E)-2-(1H-indazol-4-yl)vinyl]pyrimidin-2-yl}amino)-2-piperazin-1-ylbenzenesulfonamide trifluoroacetic acid salt], the IC50 against Abl (T315I) turned out to be 81 nM; against Abl kinase, 30 nM.
Take `O=S(=O)(c1ccc(Nc2ncc(/C=C/c3cccc(O)c3)cn2)cc1)N1CCC(CCO)CC1` [3-[2-(2-{4-[4-(2-Hydroxy-ethyl)-piperidine-1-sulfonyl]-phenylamino}-pyrimidin-5-yl)-vinyl]-phenol]: the IC50 was 160 nM at Abl (T315I) and 18 nM at Abl kinase.
In the case of `O=S(=O)(NCCN1CCCC1)c1ccc(Nc2ncc(/C=C/c3cc(O)ccc3Cl)cn2)cc1` [4-{5-[2-(2-Chloro-5-hydroxy-phenyl)-vinyl]-pyrimidin-2-ylamino}-N-(2-pyrrolidin-1-yl-ethyl)-benzenesulfonamide], the IC50 on Abl (T315I) stood at 390 nM; against Abl kinase it was 7.7 nM.
`CN(C1CCNCC1)S(=O)(=O)c1ccc(Nc2ncc(/C=C/c3ccc4nc(N)sc4c3)cn2)cc1` [4-{5-[2-(2-Amino-benzothiazol-6-yl)-vinyl]pyrimidin-2-ylamino}-N-methyl-N-piperidin-4-yl-benzensulfonamide Hydrochloride]: the IC50 against Abl (T315I) came out at 45 nM; at Abl kinase, 93 nM.
In the same order, the values of `Nc1nc2ccc(/C=C/c3cnc(Nc4ccc(S(=O)(=O)NC5CCCNC5)cc4)nc3)cc2s1` (stereo not shown) [4-{5-[2-(2-Aminobenzothiazol-6-yl)-vinyl]-pyrimidin-2-ylamino}-N-piperidin-3-yl-benzenesulfonamide Hydrochloride] are 898 nM and 1440 nM.
In the same order, the values of `Cc1cc(Nc2ncc(/C=C/c3ccc4nc(N)sc4c3)cn2)ccc1S(=O)(=O)N1CCCNCC1` [(E)-6-(2-(2-(4-(1,4-diazepan-1-ylsulfonyl)-3-methylphenylamino)pyrimidin-5-yl)vinyl)benzo[d]thiazol-2-amine] are 593 nM and 1060 nM.
Take `O=C(Nc1ccc(Cl)c(/C=C/c2cnc(Nc3ccc(S(=O)(=O)C4CCNCC4)cc3)nc2)c1)c1cccc(C(F)(F)F)c1` [N-[4-Chloro-3-(2-{2-[4-(piperidine-4-sulfonyl)-phenylamino]-pyrimidin-5-yl}-vinyl)-phenyl]-3-trifluoromethyl-benzamide]: the IC50 on Abl (T315I) was 2000 nM; against Abl kinase it was 12 nM.
Consider `NCC(=O)N1CCC(S(=O)(=O)c2ccc(Nc3ncc(/C=C/c4cccc5[nH]ccc45)cn3)cc2)CC1` [1-(4-(4-(5-((E)-2-(1H-indol-4-yl)vinyl)pyrimidin-2-ylamino)phenylsulfonyl)piperidin-1-yl)-2-aminoethanone hydrochloride], for which the IC50 was 700 nM at Abl (T315I) and 66 nM on Abl kinase.
The corresponding values for `Cc1nc(Nc2ccc(S(=O)(=O)NCCN3CCCC3)cc2)ncc1/C=C/c1cccc(O)c1` [4-{5-[2-(3-Hydroxy-phenyl)-vinyl]-4-methyl-pyrimidin-2-ylamino}-N-(2-pyrrolidin-1-yl-ethyl)-benzenesulfonamide] are 436 nM and 39 nM.
For `O=S(=O)(c1ccc(Nc2ncc(/C=C/c3cccc4[nH]ncc34)cn2)cc1)C1CCNCC1` [5-((E)-2-(1H-indazol-4-ylsulfonyl)phenyl)pyrimidin-yl)vinyl)-N-(4-(piperidin-4-2-amine trifluoroacetic acid salt], the IC50 came to 29 nM against Abl (T315I) and 1.5 nM against Abl kinase.
Regarding `C(=C\c1cccc2[nH]ncc12)/c1cnc(Nc2ccc(OC3CCNCC3)cc2)nc1` [5-[(E)-2-(1H-indazol-4-yl)vinyl]-N-[4-(piperidin-4-yloxy)phenyl]pyrimidin-2-amine trifluoroacetic acid salt], the IC50 against Abl (T315I) was determined as 169 nM; on Abl kinase it was 7.9 nM.
The corresponding values for `O=S(=O)(c1ccc(Nc2ncc(/C=C/c3ccccc3)cn2)cc1NCCO)N1CCNCC1` [2-{[5-({5-[(E)-2-phenylvinyl]pyrimidin-2-yl}amino)-2-(piperazin-1-ylsulfonyl)phenyl]amino}ethanol trifluoroacetic acid salt] are 2500 nM and 131 nM.
In the same order, the values of `Nc1nc2ccc(/C=C/c3cnc(Nc4ccc(S(=O)(=O)N5CCCNCC5)cc4)nc3)cc2s1` [(E)-6-(2-(2-(4-(1,4-diazepan-1-ylsulfonyl)phenylamino)pyrimidin-5-yl)vinyl)benzo[d]thiazol-2-amine] are 22 nM and 39 nM.

For the origin of these results see patent US20070149508A1, “Six membered heteroaromatic inhibitors targeting resistant kinase mutations” (TargeGen, Inc., priority 2005, published 2007).
